Measured values taken from ChEMBL document CHEMBL3045487, “Bioactivity guided isolation of antiinflammatory, analgesic, and antipyretic constituents from the leaves of Pedilanthus tithymaloides (L.)” (Med Chem Res, 2013).

Experiments:
Mus musculus [1] = experiment: Anti-inflammatory activity in Swiss albino Mus musculus (mouse) assessed as inhibition of carrageenan-induced paw edema at 10 mg/kg, ip administered 30 min prior to carrageenan-challenge measured after 3 to 4 hr relative to control; type: functional; settings: route intraperitoneal
Mus musculus [2] = experiment: Anti-inflammatory activity in Swiss albino Mus musculus (mouse) assessed as inhibition of cotton pellet-induced granuloma formation at 10 mg/kg, po administered QD for 5 days measured at 1 hr post-last dose relative to control; type: functional
Mus musculus [3] = experiment: Toxicity in Swiss albino Mus musculus (mouse) assessed as mortality up to 100 mg/kg, po measured up to 72 hr; type: organism-based; set-up: dose 100 mg/kg, route oral; settings: in vivo
Mus musculus [4] = experiment: Toxicity in Swiss albino Mus musculus (mouse) assessed as presence of secretions up to 100 mg/kg, po measured up to 24 hr relative to control; type: organism-based; set-up: dose 100 mg/kg, route oral; settings: in vivo
Mus musculus [5] = experiment: Toxicity in Swiss albino Mus musculus (mouse) assessed as diarrhea up to 100 mg/kg, po measured up to 24 hr relative to control; type: organism-based; set-up: dose 100 mg/kg, route oral; settings: in vivo
Mus musculus [6] = experiment: Toxicity in Swiss albino Mus musculus (mouse) assessed as convulsions up to 100 mg/kg, po measured up to 24 hr relative to control; type: organism-based; set-up: dose 100 mg/kg, route oral; settings: in vivo
Mus musculus [7] = experiment: Toxicity in Swiss albino Mus musculus (mouse) assessed as tremors up to 100 mg/kg, po measured up to 24 hr relative to control; type: organism-based; set-up: dose 100 mg/kg, route oral; settings: in vivo
Mus musculus [8] = experiment: Toxicity in Swiss albino Mus musculus (mouse) assessed as ataxia up to 100 mg/kg, po measured up to 24 hr relative to control; type: organism-based; set-up: dose 100 mg/kg, route oral; settings: in vivo
Mus musculus [9] = experiment: Toxicity in Swiss albino Mus musculus (mouse) assessed as lethargy up to 100 mg/kg, po measured up to 24 hr relative to control; type: organism-based; set-up: dose 100 mg/kg, route oral; settings: in vivo
Mus musculus [10] = experiment: Toxicity in Swiss albino Mus musculus (mouse) assessed as effect on mobility up to 100 mg/kg, po measured up to 24 hr relative to control; type: organism-based; set-up: dose 100 mg/kg, route oral; settings: in vivo
Mus musculus [11] = experiment: Toxicity in Swiss albino Mus musculus (mouse) assessed as abdominal constriction up to 100 mg/kg, po measured up to 24 hr relative to control; type: organism-based, Abdomen; set-up: dose 100 mg/kg, route oral; settings: in vivo
Mus musculus [12] = experiment: Toxicity in Swiss albino Mus musculus (mouse) assessed as weight loss up to 100 mg/kg, po measured up to 24 hr relative to control; type: organism-based; set-up: dose 100 mg/kg, route oral; settings: in vivo
Rattus norvegicus [13] = experiment: Antipyretic activity in Wistar albino Rattus norvegicus (rat) assessed as brewer's yeast-induced rectal tempeRattus norvegicus (rat)ure at 150 mg/kg, po measured at 23 hr (reference value: 39.1+/- 0.18 degC); type: functional
Rattus norvegicus [14] = experiment: Antipyretic activity in Wistar albino Rattus norvegicus (rat) assessed as brewer's yeast-induced rectal tempeRattus norvegicus (rat)ure at 150 mg/kg, po measured at 22 hr (reference value: 39.1+/- 0.18 degC); type: functional
Rattus norvegicus [15] = experiment: Antipyretic activity in Wistar albino Rattus norvegicus (rat) assessed as brewer's yeast-induced rectal tempeRattus norvegicus (rat)ure at 150 mg/kg, po measured at 21 hr (reference value: 39.1+/- 0.18 degC); type: functional
Rattus norvegicus [16] = experiment: Antipyretic activity in Wistar albino Rattus norvegicus (rat) assessed as brewer's yeast-induced rectal tempeRattus norvegicus (rat)ure at 150 mg/kg, po measured at 20 hr (reference value: 39.1+/- 0.18 degC); type: functional
Rattus norvegicus [17] = experiment: Antipyretic activity in Wistar albino Rattus norvegicus (rat) assessed as brewer's yeast-induced rectal tempeRattus norvegicus (rat)ure at 150 mg/kg, po measured at 19 hr (reference value: 39.3 +/- 0.11 degC); type: functional
Rattus norvegicus [18] = experiment: Antipyretic activity in Wistar albino Rattus norvegicus (rat) assessed as brewer's yeast-induced rectal temperature at 10 mg/kg, po measured at 22 hr (reference value: 39.1+/- 0.18 degC); type: functional
Rattus norvegicus [19] = experiment: Antipyretic activity in Wistar albino Rattus norvegicus (rat) assessed as brewer's yeast-induced rectal tempeRattus norvegicus (rat)ure at 10 mg/kg, po measured at 21 hr (reference value: 39.1+/- 0.18 degC); type: functional
Rattus norvegicus [20] = experiment: Antipyretic activity in Wistar albino Rattus norvegicus (rat) assessed as brewer's yeast-induced rectal tempeRattus norvegicus (rat)ure at 10 mg/kg, po measured at 20 hr (reference value: 39.1+/- 0.18 degC); type: functional
Rattus norvegicus [21] = experiment: Antipyretic activity in Wistar albino Rattus norvegicus (rat) assessed as brewer's yeast-induced rectal tempeRattus norvegicus (rat)ure at 10 mg/kg, po measured at 19 hr (reference value: 39.3 +/- 0.11 degC); type: functional
Rattus norvegicus [22] = experiment: Antipyretic activity in Wistar albino Rattus norvegicus (rat) assessed as brewer's yeast-induced rectal tempeRattus norvegicus (rat)ure at 10 mg/kg, po measured at 23 hr (reference value: 39.1+/- 0.18 degC); type: functional
Mus musculus [23] = experiment: Antinociceptive activity Swiss albino Mus musculus (mouse) assessed as inhibition of formalin-induced paw licking at 10 mg/kg, po administered 30 min prior to formalin-challenge measured from 15 to 30 min relative to control; type: functional
Mus musculus [24] = experiment: Antinociceptive activity Swiss albino Mus musculus (mouse) assessed as inhibition of formalin-induced paw licking at 10 mg/kg, po administered 30 min prior to formalin-challenge measured up to 5 min relative to control; type: functional
Mus musculus [25] = experiment: Antinociceptive activity in Swiss albino Mus musculus (mouse) assessed as inhibition of acetic acid-induced writhing at 10 mg/kg, po administered 1 hr prior to acetic acid-challenge measured up to 20 min relative to control; type: functional
Mus musculus [26] = experiment: Antinociceptive activity Swiss albino Mus musculus (mouse) assessed as inhibition of formalin-induced paw licking at 10 mg/kg, po administered 60 min prior to formalin-challenge measured from 15 to 30 min relative to control; type: functional
Mus musculus [27] = experiment: Antinociceptive activity Swiss albino Mus musculus (mouse) assessed as inhibition of formalin-induced paw licking at 10 mg/kg, po administered 60 min prior to formalin-challenge measured up to 5 min relative to control; type: functional
Mus musculus [28] = experiment: Anti-inflammatory activity in Swiss albino Mus musculus (mouse) assessed as inhibition of carrageenan-induced paw edema at 10 mg/kg, ip administered 30 min prior to carrageenan-challenge measured after 5 hr relative to control; type: functional; settings: route intraperitoneal
Mus musculus [29] = species on record: Mus musculus; experiment: animal or person; settings: Swiss albino, po, read-out: INH
Description: Antinociceptive activity Swiss albino Mus musculus (mouse) assessed as inhibition of formalin-induced paw licking at 5 mg/kg, po administered 30 min prior to formalin-challenge measured from 15 to 30 min relative to control

Mus musculus [30] = species on record: Mus musculus; experiment: animal or person; settings: Swiss albino, po, read-out: INH; remark: listed apart in the source
Description: Antinociceptive activity Swiss albino Mus musculus (mouse) assessed as inhibition of formalin-induced paw licking at 5 mg/kg, po administered 30 min prior to formalin-challenge measured up to 5 min relative to control

Row | Structure (SMILES) | inhibition in vivo at 10 mg/kg (Mus musculus [1]) | inhibition in vivo at 10 mg/kg (Mus musculus [2]) | Activity (Mus musculus [3]) | Activity (Mus musculus [4]) | Activity (Mus musculus [5]) | Activity (Mus musculus [6]) | Activity (Mus musculus [7]) | Activity (Mus musculus [8]) | Activity (Mus musculus [9]) | Activity (Mus musculus [10]) | Activity (Mus musculus [11]) | Activity (Mus musculus [12]) | inhibition in vivo at 10 mg/kg (Mus musculus [25]) | inhibition in vivo at 10 mg/kg (Mus musculus [26]) | inhibition in vivo at 10 mg/kg (Mus musculus [27]) | other results
1 | CCCCCCCCCCCCC(O)COS(=O)(=O)[O-].[Na+] (stereo unspecified) | 33.3% | 12.9% | Non-toxic | Non-toxic | Non-toxic | Non-toxic | Non-toxic | Non-toxic | Non-toxic | Non-toxic | Non-toxic | Non-toxic |  |  |  | 
2 | CC(=O)Nc1ccc(O)cc1 [ACETAMINOPHEN] |  |  |  |  |  |  |  |  |  |  |  |  |  |  |  | T (Rattus norvegicus [13]): 37.7 °C; T (Rattus norvegicus [14]): 37.9 °C; T (Rattus norvegicus [15]): 38 °C; T (Rattus norvegicus [16]): 38 °C; T (Rattus norvegicus [17]): 39.6 °C
3 | CC[C@H](CC[C@@H](C)[C@H]1CC[C@H]2[C@@H]3CC=C4C[C@@H](O)CC[C@]4(C)[C@H]3CC[C@]12C)C(C)C [BETA-SITOSTEROL] |  | 30.4% | Non-toxic | Non-toxic | Non-toxic | Non-toxic | Non-toxic | Non-toxic | Non-toxic | Non-toxic | Non-toxic | Non-toxic |  |  |  | T (Rattus norvegicus [18]): 38 °C; T (Rattus norvegicus [19]): 38.1 °C; T (Rattus norvegicus [20]): 38.1 °C; T (Rattus norvegicus [21]): 39.6 °C; T (Rattus norvegicus [22]): 37.9 °C
4 | O=C(O)Cc1ccccc1Nc1c(Cl)cccc1Cl [DICLOFENAC SODIUM] |  |  |  |  |  |  |  |  |  |  |  |  | 90.9% |  |  | inhibition in vivo at 10 mg/kg (Mus musculus [23]): 97.6%; inhibition in vivo at 10 mg/kg (Mus musculus [24]): 20.1%
5 | CC(=O)O[C@H]1CC[C@@H]2[C@](C)(CC[C@H]3[C@@]2(C)CC[C@@]2(C)[C@H]4CC(C)(C)CC[C@]4(C)CC[C@]32C)[C@H]1C [EPIFRIEDELANYL ACETATE] | 30.6% | 24.9% | Non-toxic | Non-toxic | Non-toxic | Non-toxic | Non-toxic | Non-toxic | Non-toxic | Non-toxic | Non-toxic | Non-toxic |  |  |  | 
6 | C[C@H]1[C@H](O)CC[C@@H]2[C@]1(C)CC[C@H]1[C@@]2(C)CC[C@@]2(C)[C@H]3CC(C)(C)CC[C@]3(C)CC[C@]12C [FRIEDELANOL] | 36.1% | 29.2% | Non-toxic | Non-toxic | Non-toxic | Non-toxic | Non-toxic | Non-toxic | Non-toxic | Non-toxic | Non-toxic | Non-toxic | 45.8% | 42.9% | 35.7% | 
7 | COc1ccc2c(c1)c(CC(=O)O)c(C)n2C(=O)c1ccc(Cl)cc1 [INDOMETHACIN] |  | 45.5% |  |  |  |  |  |  |  |  |  |  |  |  |  | inhibition in vivo at 10 mg/kg (Mus musculus [28]): 61.1%
8 | O=c1cc(-c2ccc(O)c(O)c2)oc2cc(O)cc(O)c12 [LUTEOLIN] |  | 37% | Non-toxic | Non-toxic | Non-toxic | Non-toxic | Non-toxic | Non-toxic | Non-toxic | Non-toxic | Non-toxic | Non-toxic | 55.4% | 48.6% | 40.3% | inhibition in vivo at 10 mg/kg (Mus musculus [28]): 50%
9 | CN1CC[C@]23c4c5ccc(O)c4O[C@H]2[C@@H](O)C=C[C@H]3[C@H]1C5 [MORPHINE] |  |  |  |  |  |  |  |  |  |  |  |  |  |  |  | inhibition in vivo at 5 mg/kg (Mus musculus [29]): 100%; inhibition in vivo at 5 mg/kg (Mus musculus [30]): 68%
10 | C[C@H]1[C@H](C)CC[C@]2(C(=O)O)CC[C@]3(C)C(=CC[C@@H]4[C@@]5(C)CC[C@H](O)C(C)(C)[C@@H]5CC[C@]43C)[C@H]12 [URSOLIC ACID] |  | 38.5% | Non-toxic | Non-toxic | Non-toxic | Non-toxic | Non-toxic | Non-toxic | Non-toxic | Non-toxic | Non-toxic | Non-toxic | 50.3% | 61.4% | 43.6% | 
